Consider three compounds from patent US8394794B2, “Therapeutic compounds” (Regents of The University of Minnesota, priority 2007, dated 2013).

Read-outs that look alike come from different tables or passages of the source.

Broadly, the Ki is a dissociation constant, usually derived from enzyme kinetics or from competition with a known ligand. The term half-life denotes how long it takes for the measured level to halve.

In one data set the target is T1, Bcl-XL (Homo sapiens, UniProt Q07817).
T1 construct: made in house
Put plainly: Fluorescence polarization (FP) competition binding assay, Bcl-XL. The text has this:
(§1) With the stability improved, the mechanism of action of compound 1 was studied to determine whether compound 1 would retain the same mechanism of HA 14-1 as an antagonist against anti-apoptotic Bcl-2 proteins. Table 1 summarizes the binding interaction of compound 1 with three anti-apoptotic Bcl-2 proteins by following an established fluorescence polarization competition assay (see Doshi, J. M.; Tian, D.; Xing, C. J. Med. Chem. 2006, 49, 7731-7739).
(§2) To explore whether compound 3 functioned the same as HA 14-1 in inducing cell death, compound 3 was tested for its binding interactions with recombinant Bcl-2, Bcl-XL, and Bcl-w proteins. This was done by using the FP based competition binding assay (see below).
(§3) The binding interactions of the test compound with Bcl-2, Bcl-XL and Bcl-w proteins were evaluated using the respective recombinant proteins. The preparation of these recombinant Bcl-2 proteins and fluorescently labeled Bak peptide has been detailed previously (see Doshi, J. M.; Tian, D.; Xing, C. J. Med. Chem. 2006, 49, 7731). The assays were conducted via an optimized protocol established in the laboratory using a GENios Pro plate reader (Tecan US, NC) with all assays performed in triplicate, each assay performed twice (see Doshi, J. M.; Tian, D.; Xing, C. J. Med. Chem. 2006, 49, 7731).
(Fluorescence polarisation rises when a labelled molecule tumbles more slowly, as on binding a larger partner.)

The next data set concerns the target T2, Bcl-2 (Homo sapiens, UniProt P10415).
T2 construct: made in house
Kind of data set: Fluorescence polarization (FP) competition binding assay, Bcl-2. The following applies: Table 1. As to the method: This was done by using the FP based competition binding assay (see below).
The binding interactions of the test compound with Bcl-2, Bcl-XL and Bcl-w proteins were evaluated using the respective recombinant proteins. […] The assays were conducted via an optimized protocol established in the laboratory using a GENios Pro plate reader (Tecan US, NC) with all assays performed in triplicate, each assay performed twice (see Doshi, J. M.; Tian, D.; Xing, C. J. Med. Chem. 2006, 49, 7731).

Data set [1] has as its system Jurkat cells. Put plainly: Sensitization of Jurkat cells to doxorubicin (combination cytotoxicity). The class given is cell-based. The following applies: for synergism with doxorubicin: combination vs each alone, FIG. 4. As to the method:
Finally, compound 1 was analyzed for its capability in sensitizing tumor cells to standard chemotherapies. As HA 14-1 was established to sensitize various tumor cells to doxorubicin, compound 1 was tested in parallel with HA 14-1 for the potential synergism to doxorubicin in Jurkat cells. Briefly, the cytotoxicity of doxorubicin alone, compound 1 alone, or the combination of both to Jurkat cells were evaluated. […] This study established that compound 1 can function as a chemosensitizer in combination cancer therapy. The synergism of compound 1 was further supported by the dose-response potentiation of doxorubicin (FIG. 5).

The nature of data set [2]: HPLC analysis of decomposition in cell culture media. Type of data set: physicochemical. The following applies: 48-hour incubation in cell culture media at 37° C.
Data set [3] concerns Jurkat cells (normal, over-expressing Bcl-2, or over-expressing Bcl-XL). Kind of data set: In vitro cytotoxicity against three Jurkat cell lines (drug resistance). The class given is cell-based. The settings on record: Jurkat normal vs Bcl-2 or Bcl-XL over-expressing; FIG. 3, FIG. 7. As to the method:
Compound 1 was further studied for its capability to overcome drug resistance induced by the over-expression of anti-apoptotic Bcl-2 proteins. Specifically, the in vitro cytotoxicity of compound 1 against three Jurkat cells (normal, over-expressing Bcl-2, or over-expressing Bcl-XL) were evaluated.
The ability of compound 3 to overcome the drug resistance induced by the over-expression of anti-apoptotic Bcl-2 proteins by evaluating its cytotoxicity in Bcl-2 or Bcl-XL over-expressing Jurkat cells was also evaluated.
The in vitro cytotoxicity of the test compound was assayed by determining the GI50s (the concentration of the compound required to inhibit cell growth by 50%). In brief, Jurkat cells at a density of 10^4 cells/well were plated in a 96-well plate. A series of 3-fold dilution of the test compound with 1% DMSO in the final cell media was used for the cell treatment (cells treated with media containing 1% DMSO served as a control). An identical set of the test compounds was incubated at 37° C. for the specified time and used along with freshly prepared samples for the cell-viability assay. […]

Another data set concerns the target T3, Bcl-w (Homo sapiens, UniProt Q92843).
T3 construct: made in house
T3 sequence (Q92843 1-193): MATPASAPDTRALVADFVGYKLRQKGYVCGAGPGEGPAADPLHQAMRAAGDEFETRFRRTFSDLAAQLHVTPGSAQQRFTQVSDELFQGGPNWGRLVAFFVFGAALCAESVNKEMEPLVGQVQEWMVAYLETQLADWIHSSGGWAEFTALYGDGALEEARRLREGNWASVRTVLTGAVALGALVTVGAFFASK
Put plainly: Fluorescence polarization (FP) competition binding assay, Bcl-w.
Excerpt: as §1, §2, §3

A further data set has as its system caspase-3/-7. Put plainly: Concentration-dependent activation of caspase-3/-7 / mode of cell death. The class given is cell-based. The following applies: 24 hours treatment; FIG. 2. Here is the method: Compound 1 was further analyzed for its mechanism to inhibit cell growth as HA 14-1 does. This was characterized for concentration-dependent activation of caspase-3/-7. HA 14-1 was run in parallel for comparison. […] Mechanistically, however, compound 1 induced cell death through two different pathways depending on its concentration, similar to HA 14-1. Between 50-100 μM, compound 1 induces apoptosis as characterized by caspase-3/-7 activation. On the other hand, at >100 μM, compound 1 induced non-apoptotic cell death (no activation of caspase-3/-7). The induction of cell death through apoptosis and non-apoptotic process was further supported by DNA fragmentation studies.

Data set [4] relates to Jurkat cells. Kind of data set: In vitro cytotoxicity assay (GI50) with fresh and incubated samples. The class given is cell-based. The following applies: for increase of GI50 after incubation: 24-hour incubation in cell culture media at 37° C., FIG. 1; for loss of cytotoxicity after incubation: one hour incubation, FIG. 6. As to the method:
Compound 1 (Example 2) was first evaluated for its stability under physiological conditions. In brief, compound 1 was incubated in cell culture media at 37° C. for 24 hours and the in vitro cytotoxicity was determined. HA 14-1 was run in parallel for comparison.
The stability of compound 3 (Example 1) was evaluated using the in vitro cytotoxicity assay described below.
The in vitro cytotoxicity of the test compound was assayed by determining the GI50s (the concentration of the compound required to inhibit cell growth by 50%). In brief, Jurkat cells at a density of 10^4 cells/well were plated in a 96-well plate. A series of 3-fold dilution of the test compound with 1% DMSO in the final cell media was used for the cell treatment (cells treated with media containing 1% DMSO served as a control). An identical set of the test compounds was incubated at 37° C. for the specified time and used along with freshly prepared samples for the cell-viability assay. After 24-hour treatment, the relative cell viability in each well was determined by using CellTiter-Blue Cell Viability Assay kit (a fluorescence assay that measures the reduction of a dye (resazurin) into a fluorescent end product (resorufin) by metabolically active cells—viable cells) (Promega, CA). The GI50 of each candidate was determined by fitting the relative viability of the cells to the drug concentration by using a dose-response model in GraphPad software.

A short description of data set [5]: Half-life under varying pH conditions. The class given is physicochemical. The settings on record: buffer.
The subject of data set [6] is Jurkat cells (normal, over-expressing Bcl-2, or over-expressing Bcl-XL). The settings on record: Jurkat over-expressing Bcl-2 or Bcl-XL; from Doshi et al. J. Med. Chem. 2006; cited from earlier work.
Where [7] appears, read: Table 3, mean of two independent experiments with triplicate in each, read-out: Ki ± SEM Bcl-w.

T1 sequence (Q07817 whole entry, species assumed): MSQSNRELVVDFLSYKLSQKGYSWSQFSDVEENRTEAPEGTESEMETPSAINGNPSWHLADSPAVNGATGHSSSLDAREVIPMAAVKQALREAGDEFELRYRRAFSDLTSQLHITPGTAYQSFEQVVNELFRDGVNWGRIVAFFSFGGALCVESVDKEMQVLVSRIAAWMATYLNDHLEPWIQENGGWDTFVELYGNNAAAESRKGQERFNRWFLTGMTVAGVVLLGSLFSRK
T2 sequence (P10415 whole entry, species assumed): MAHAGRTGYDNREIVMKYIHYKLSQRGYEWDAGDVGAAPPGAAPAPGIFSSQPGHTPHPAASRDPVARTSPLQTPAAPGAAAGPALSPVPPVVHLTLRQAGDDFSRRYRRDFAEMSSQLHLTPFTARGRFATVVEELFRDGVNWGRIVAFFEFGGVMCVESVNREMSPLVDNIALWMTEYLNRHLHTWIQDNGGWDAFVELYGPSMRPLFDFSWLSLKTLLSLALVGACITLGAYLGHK

Turning to `CCOC(=O)CC1C(C(=O)OCC)=C(N)Oc2ccc(Br)cc21` (stereo not drawn) [Compound 1, Ethyl-2-amino-6-bromo-4-(2-ethoxy-2-oxoethyl)-4H-chromene-3-carboxylate], the Ki on Bcl-XL (Table 1, read-out: Ki Bcl-XL) worked out at 390 µM; at Bcl-2, 858 µM; at Bcl-w (Table 1, read-out: Ki Bcl-w) it was 686 µM. Further, in the data set with Jurkat cells [1] (30 μM compound, FIG. 5), the potentiation of doxorubicin came out at 1.4 fold. In addition, the synergism with doxorubicin entry in the data set with Jurkat cells [1] was “able to synergize doxorubicin”. Besides, in data set [2], the “decomposition by HPLC” value is “no decomposition was detected”. Moreover, the “resistance induced by over-expression of Bcl-2 or Bcl-XL” value (from here on “resistance induced by over-expression”) in data set [3] is reported as “induced no resistance”. The “concentration inducing apoptosis (caspase-3/-7 activation)” value in the data set on caspase-3/-7 lay in the range of 50 to 100 µM. In addition, the “concentration inducing non-apoptotic cell death (no activation of caspase-3/-7)” value in the data set on caspase-3/-7 is greater than 100 µM. Also, the “increase of GI50 after incubation” value in the data set on Jurkat cells [4] is reported as 1.2 fold. In the data set on Jurkat cells [4] (24 hours treatment, FIG. 2), the “cytotoxicity (inhibition of cell growth) compared with HA 14-1” value was “less cytotoxic than HA 14-1”.

Consider `CCOC(=O)C1=C(N)Oc2ccc(Br)cc2C1C(C)(C#N)C(=O)OCC` (stereo not drawn) [Compound 3, Ethyl-2-amino-6-bromo-4-(2-cyano-1-ethoxy-1-oxopropan-2-yl)-4H-chromene-3-carboxylate], for which the Ki at Bcl-XL (Table 3, mean of two independent experiments with triplicate in each, read-out: Ki ± SEM Bcl-XL) was 55.4 ± 0.88 µM; on Bcl-w (setting [7]), 49.4 ± 1.76 µM. Also, in data set [3], the “resistance induced by over-expression” value was “unable to induce any noticeable resistance”. The same compound yielded a half-life in data set [5] (pH 6.0) of 2.75 h. For the same compound, the “loss of cytotoxicity after incubation” value with Jurkat cells [4] was found to be 2.5 fold.

As to `CCOC(=O)C1=C(N)Oc2ccc(Br)cc2C1C(C#N)C(=O)OCC` (stereo not drawn) [HA 14-1, reference compound], the Ki was determined as 58.9 ± 5.3 µM at Bcl-XL (Table 1, read-out: Ki Bcl-XL); 169 ± 18.9 µM on Bcl-2; 59.3 ± 5.3 µM at Bcl-w (Table 1, read-out: Ki Bcl-w); 59.3 ± 5.32 µM on Bcl-w (setting [7]). Further, in data set [6], the “resistance induced by over-expression” value is “show no resistance”. In addition, the synergism with doxorubicin entry in the data set on Jurkat cells [1] is “able to synergize doxorubicin”. Besides, the values for the half-life in data set [5] (pH 6.0), in [5] (pH 7.0) and in data set [5] (pH 8.0) were 2.09 h, 1.86 h and 1.22 h, respectively. In addition, the “increase of GI50 after incubation” value with Jurkat cells [4] was roughly 35 fold. In the data set on Jurkat cells [4], the “loss of cytotoxicity after incubation” value is on record as 10 fold.
